The text below walks through data of patent publication US9623108B2, “Formulation for oral administration with beneficial effects on the cardiovascular system” (ROTTAPHARM S.p.A., priority 2006, dated 2017).

Data set [1] has as its system rabbits rendered hypercholesterolaemic and hypertriglyceridaemic. The experiment in a line: Rabbits rendered hypercholesterolaemic and hypertriglyceridaemic with atherogenic feed, 3 months treatment, blood lipid analyses. In kind it is in vivo, New Zealand White rabbits. As to the method:
The action of the active principles, according to the composition of COMB, was tested and evaluated experimentally on rabbits rendered hypercholesterolaemic and hypertriglyceridaemic with a diet with added cholesterol, powdered egg yolk and lard. Note: all the daily doses used in the treatment groups, described in the experimental section, are about 4 times higher than those stated in the examples of formulation described in a later section. An exception is the group treated with berberine 100 mg/kg, for which the dose of active principle corresponds to about 13 times that contained in the examples of formulations intended for oral administration in humans. […] The difference in posology between animals and humans is perfectly normal in pharmacology, because it is well known that the pathologies induced experimentally in animals are always dramatically and unnaturally more severe than those that occur spontaneously in humans. New Zealand White rabbits of 6-8 weeks and with body weight of 1.8-2.0 kg. The following feeds, in pellets, were provided at a ration of 150 g of feed per day. Water was available ad libitum. ATER: Atherogenic feed, i.e. standard feed for guinea pigs and rabbits according to Sherman, in pellets (Laboratorio Dottori […].) with addition of 10% powdered egg yolk, 10% lard and 1% cholesterol according to Kong et al. [2004]. The substances under investigation were administered by stomach tube, once a day, suspended in 2 ml/kg of carboxymethylcellulose 0.2% (CMC). All the animals were acclimatized in the living quarters at 25±2° C. and relative humidity 55-65%. After 1 week, blood samples were taken in order to obtain the baseline data. The animals were then randomized to the following treatment groups of 10 rabbits each. AT: Controls with feed ATER and with daily administration of 2 ml/kg of CMC by stomach tube. Ber30: Feed AT, with daily administration of berberine 30 mg/kg in 2 ml/kg of CMC, by stomach tube. Ber100: Feed AT, with daily administration of berberine 100 mg/kg in 2 ml/kg of CMC, by stomach tube. Ass (reference association (combination) for lowering blood lipid level): Feed AT, with daily administration of Ass in 2 ml/kg of CMC, by stomach tube. COMB: Feed AT, with daily administration of Ass with addition of 30 mg/kg of berberine in 2 ml/kg of CMC, by stomach tube. The treatments were continued for 3 months. […] These analyses were carried out with suitably validated, conventional laboratory methods. A descriptive statistical analysis was performed using conventional methods of calculation.

Data set [2] deals with hypercholesterolaemic patients. Particulars: berberine 500 mg b.i.d.; cited from earlier work.
The subject of data set [3] is patients who had hypercholesterolaemia and hypertriglyceridaemia. To be noted: 500 mg berberine in a single dose once a day; cited from earlier work.
Data set [4] in a line: NOAEL, doses repeated daily in an animal. Particulars: equivalent of the animal NOAEL in humans. Format: in vivo.
In the next data set the target is T1, HMG-CoA-r (Homo sapiens, UniProt P04035).
T1 sequence (P04035 1-888): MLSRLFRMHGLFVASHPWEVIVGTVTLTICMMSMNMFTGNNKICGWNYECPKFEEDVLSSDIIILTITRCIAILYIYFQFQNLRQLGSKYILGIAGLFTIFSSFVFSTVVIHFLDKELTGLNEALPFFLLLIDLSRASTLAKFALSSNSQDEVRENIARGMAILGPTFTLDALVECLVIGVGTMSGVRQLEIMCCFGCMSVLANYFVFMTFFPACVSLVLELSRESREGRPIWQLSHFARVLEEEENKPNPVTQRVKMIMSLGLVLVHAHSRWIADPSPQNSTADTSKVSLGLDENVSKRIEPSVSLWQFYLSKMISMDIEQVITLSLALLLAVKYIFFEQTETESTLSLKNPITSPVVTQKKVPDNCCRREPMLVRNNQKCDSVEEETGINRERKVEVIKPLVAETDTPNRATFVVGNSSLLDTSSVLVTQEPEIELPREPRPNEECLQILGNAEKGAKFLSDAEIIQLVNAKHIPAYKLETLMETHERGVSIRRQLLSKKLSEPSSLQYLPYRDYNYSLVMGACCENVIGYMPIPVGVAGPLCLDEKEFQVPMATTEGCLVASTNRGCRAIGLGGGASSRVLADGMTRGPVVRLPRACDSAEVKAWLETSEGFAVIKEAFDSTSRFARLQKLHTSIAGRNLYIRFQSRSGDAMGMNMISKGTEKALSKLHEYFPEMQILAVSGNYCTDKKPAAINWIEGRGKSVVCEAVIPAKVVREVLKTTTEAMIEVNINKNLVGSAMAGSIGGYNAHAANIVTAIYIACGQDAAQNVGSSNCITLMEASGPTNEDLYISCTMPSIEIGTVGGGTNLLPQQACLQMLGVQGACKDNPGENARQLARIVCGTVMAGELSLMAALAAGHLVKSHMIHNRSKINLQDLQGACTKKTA
Particulars: competition with HMG-CoA at HMG-CoA-r; cited from earlier work.

[5] abbreviates: berberine 30 mg/kg/d by stomach tube, not statistically significant.
[6] abbreviates: berberine 100 mg/kg/d by stomach tube, p<0.001.

As to `COc1ccc2cc3[n+](cc2c1OC)CCc1cc2c(cc1-3)OCO2` [berberine, 5,6-dihydro-9,10-dimethoxybenzo[g]-1,3-benzodioxolo[5,6-a]quinolizinium], the “increase in HDL” value was determined as 0.48 mmol/L in data set [1] (berberine 30 mg/kg/d) and 0.53 mmol/L in data set [1] (berberine 100 mg/kg/d). In addition, the “reduction of the increase in LDL caused by AT” value in data set [1] (setting [5]) is given as 13%; in data set [1] (setting [6]) it was 89%. Also, the “reduction of the increase in total cholesterol (CT) caused by AT” value in data set [1] (setting [5]) worked out at 15%; in data set [1] (setting [6]), 87%. The “reduction of the increase in blood triglycerides (TG) caused by AT” value in data set [1] (berberine 30 mg/kg/d by stomach tube, p<0.01) is recorded as 43%; in data set [1] (setting [6]), 66%. Besides, the hepatic transaminases result in data set [2] is listed as “decrease in hepatic transaminases”; in data set [3] it was “improved”. For the same molecule, the “tolerability of the treatment” value in data set [3] was “well tolerated”.

Take `CC1=C(/C=C/C(C)=C/C=C/C(C)=C/C=C/C=C(C)/C=C/C=C(C)/C=C/C2=C(C)C(=O)[C@@H](O)CC2(C)C)C(C)(C)C[C@H](O)C1=O` [Ast, 3,3′-dihydroxy-β,β′-carotene-4,4′-dione]: in data set [4], the “NOAEL equivalent in humans” value is “more than 80 g”.

As for `CC[C@H](C)C(=O)O[C@H]1C[C@@H](C)C=C2C=C[C@H](C)[C@H](CC[C@@H]3C[C@@H](O)CC(=O)O3)[C@H]21` [Monacoline K], the “activity for the enzyme relative to the natural substrate HMG-CoA” value at HMG-CoA-r is recorded as 2000 times.
